# According to US8415305B2, “Use of cyclic depsipeptides to inhibit kallikrein 7” (Novartis AG, priority 2007, dated 2013):
# Molecular target: human kallikrein 7 (hKallikrein7) (Homo sapiens, UniProt P49862)
# Experiment: Kallikrein 7 fluorescence-quenched substrate enzymatic assay (IC50)
# Format: biochemical
# Method: An “inhibitor” is a cyclic depsipeptide that inhibits an enzymatic reaction with a measure IC50 of less than […], for instance 50 μM, 30 μM, 20 μM or 10 μM. Particularly preferred are cyclic depsipeptides with an IC50 of less than 30 μM for human kallikrein 7, for instance cyclic depsipeptides with an IC50 of less than 10 μM, 1 μM, 100 nM, 50 nM, 40 nM, 30 nM, 20 nM, 10 nM, or less. IC50 for human kallikrein can be measured using the fluorescence-quenched substrate Ac-Glu-Asp(EDANS)-Lys-Pro-lle-Leu-Phe^Arg-Leu-Gly-Lys(DABCYL)-Glu-NH2 (SEQ ID NO 1) (where ^ indicates the scissile bond, identified by MS analysis) which can be purchased from Biosyntan (Berlin, Germany). Enzymatic reactions are conducted in 50 mM sodium citrate buffer at pH 5.6 containing 150 mM NaCl and 0.05% (w/v) CHAPS. For the determination of IC50 values the assay is performed at room temperature in 384-well plates. All final assay volumes are 30 μl. Test compounds are dissolved in 90% (v/v) DMSO/water and diluted in water (containing 0.05% (w/v) CHAPS) to 3-times the desired assay concentration. The 11 final compound concentrations are: 0.3 nM, 1 nM, 3 nM, 10 nM, 30 nM, 100 nM, 300 nM, 1 μM, 3 μM, 10 μM and 30 μM. For each assay, 10 μl water/CHAPS (±test compound) are added per well, followed by 10 μl protease solution (diluted with 1.5× assay buffer). The protease concentration in final assay solution is 0.2 nM (according to the enzyme concentrations determined by the Bradford method). After 1 hour of incubation at room temperature, the reaction is started by addition of 10 μl substrate solution (substrate dissolved in 1.5× assay buffer, final concentration is 2 μM). The effect of the compound on the enzymatic activity is obtained from the linear progress curves and determined from two readings, the first one taken directly after the addition of substrate (t=0 min) and the second one after 1 hour (t=60 min). The IC50 value is calculated from the plot of percentage of inhibition vs. inhibitor concentration using non-linear regression analysis software (XLfit, Vers. 4.0; ID Business Solution Ltd., Guildford, Surrey, UK).
# The fluorescence-quenched substrate Ac-Glu-Asp(EDANS)-Lys-Pro-lle-Leu-Phe^Arg-Leu-Gly-Lys(DABCYL)-Glu-NH2 (SEQ ID NO1) (where ^ indicates the scissile bond, identified by MS analysis) is purchased from Biosyntan (Berlin, Germany) and kept as a 5 mM stock solution in DMSO at −20° C. All other chemicals are of analytical grade. […]
# For fluorescence intensity (FI) measurements an Ultra Evolution reader (TECAN, Maennedorf, Switzerland) is used. The instrument is equipped with a combination of a 350 nm (20 nm bandwidth) and a 500 nm (25 nm bandwidth) bandpath filter for fluorescence excitation and emission acquisition, respectively. […]
# Sequence of human kallikrein 7 (hKallikrein7) (P49862 30-253): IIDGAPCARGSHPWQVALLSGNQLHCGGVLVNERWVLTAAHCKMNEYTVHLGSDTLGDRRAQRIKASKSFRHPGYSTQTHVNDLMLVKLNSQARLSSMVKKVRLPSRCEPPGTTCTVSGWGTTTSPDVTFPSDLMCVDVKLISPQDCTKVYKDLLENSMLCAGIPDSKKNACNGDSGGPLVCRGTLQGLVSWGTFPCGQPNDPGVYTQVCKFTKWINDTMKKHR
row,Structure (SMILES),IC50 [nM]
1,CCC(C)C(=O)N[C@@H](CCC(N)=O)C(=O)NC1C(=O)N[C@@H](CC(C)C)C(=O)NC2CC[C@H](O)N(C2=O)[C@@H](C(C)CC)C(=O)N(C)[C@@H](Cc2ccc(O)cc2)C(=O)N[C@@H](C(C)CC)C(=O)O[C@@H]1C (stereo partly shown) [formula (III)],0.4
2,CCC(C)[C@@H]1NC(=O)[C@H](Cc2ccc(O)cc2)N(C)C(=O)[C@H](C(C)CC)N2C=CC[C@H](NC(=O)[C@H](CC(C)C)NC(=O)[C@H](NC(=O)[C@H](CCC(N)=O)NC(=O)C(C)C)[C@@H](C)OC1=O)C2=O (stereo partly shown) [formula (V)],6
3,CCC(C)C(=O)N[C@@H](CCC(N)=O)C(=O)N[C@H]1C(=O)N[C@@H](CC(C)C)C(=O)N[C@H]2CC=CN(C2=O)[C@@H](C(C)CC)C(=O)N(C)[C@@H](Cc2ccc(O)cc2)C(=O)N[C@@H](C(C)CC)C(=O)O[C@@H]1C (stereo partly shown) [formula (IV)],5
4,CCC(C)[C@@H]1NC(=O)[C@H](Cc2ccc(O)cc2)N(C)C(=O)[C@H](C(C)CC)N2C(=O)C(CC[C@@H]2O)NC(=O)[C@H](CC(C)C)NC(=O)[C@H](NC(=O)[C@H](CCC(N)=O)NC(=O)C(C)C)[C@@H](C)OC1=O (stereo partly shown) [formula (II)],1
